Measurements from patent publication US20210236445A1, “BACLOFEN AND ACAMPROSATE BASED THERAPY OF ALZHEIMER'S DISEASE IN PATIENTS HAVING LOST RESPONSIVENESS TO ACETYLCHOLINESTERASE INHIBITOR THERAPY” (priority 2018, published 2021).

What was measured:
[1] = test system: Aβ25-35-induced spontaneous alternation deficits in mice; test: Spontaneous alternation performance (Y-maze) in Aβ25-35 ICV-injected mice; assay type: in vivo, Swiss mice; settings: for Effect on Aβ25-35-induced cognitive impairment, spontaneous alternation (Y-maze), after longer treatment / Effect on Aβ25-35-induced cognitive impairment, spontaneous alternation (Y-maze): Example A; for Effect on Aβ25-35-induced cognitive impairment, spontaneous alternation (Y-maze), after longer treatment: treatment alone from D20, tested D38 or D40; for Effect on Aβ25-35-induced cognitive impairment, spontaneous alternation (Y-maze): treatment alone per os from D20, eleven days, tested D30, donepezil 1 mg/Kg once a day or acamprosate/baclofen 0.2/3 mg/Kg twice a day
Procedure: (§1) Male Swiss mice were anesthetized 5 minutes with isoflurane 2.5%. At Day 01, animals were injected intracerebroventricularly (ICV) through a 28-gauge stainless-steel needle, 4 mm long. An injection volume of 3 μl was delivered gradually within 30 s and the needle left in place for an additional 30 s before being removed. […] Homogeneous preparation of the Aβ25-35 peptide were performed according to the AMYLGEN's own procedure.
(§2) All animals received a per os gavage using an inox steel cannula (5 mL/Kg). All the treatments were administered under a volume calculated according to the individual body weight of each mouse (5 mL/Kg). Vehicle and donepezil (1 mg/Kg) administration were done once a day, and the mix Acamprosate/baclofen twice a day (0.2 mg/Kg and 3 mg/Kg, respectively).
(§3) In a first set of experiments (FIG. 1A), the treatment, donepezil (1 mg/Kg), was started 19 days (D20) after icy injection for 21 days (D40) (group 3 and 4). At D30 one group of animals treated with donepezil was administered with acamprosate and baclofen (0.2 mg/Kg and 3 mg/Kg, respectively), in addition of donepezil treatment (group 4).
(§4) In a second set of experiments (FIG. 1B). The treatment, donepezil (1 mg/kg) (Group 5) or the combination acamprosate and baclofen (0.2 mg/Kg and 3 mg/Kg, respectively) (group 7), was started 19 days (D20) after icy injection and maintained for 23 days (D42) in two groups of animals. In a third group of animals (group 6), initially treated with donepezil, treatment with donepezil was stopped at D30 and replaced with administration of acamprosate and baclofen (0.2 mg/Kg and 3 mg/Kg, respectively) until D42.
(§5) Mice were tested for spontaneous alternation performance in the Y-maze, an index of spatial working memory. The Y-maze was designed according to Itoh et al.,1993 (57) and Hiramatsu and Inoue, 1999 (58), and is made of grey polyvinylchloride. Each arm is 40 cm long, 13 cm high, 3 cm wide at the bottom, 10 cm wide at the top, and converging at an equal angle. Each mouse was placed at the end of one arm and allowed to move freely through the maze during an 8 min session. The series of arm entries, including possible returns into the same arm, were checked visually by an experimenter blind to treatment. An alternation is defined as entries into all three arms on consecutive occasions. The number of maximum alternations were therefore the total number of arm entries minus two and the percentage of alternation as calculated as (actual alternations / maximum alternations)×100. Calculated parameters consisted in the percentage of alternation (memory index) and the total number of arm entries (exploration index) (52-56).
In the first set of experiments (FIG. 1A), animals were tested after the beginning of the treatment at D30 and D38. In the second set of experiments (FIG. 1B), animals were tested after the beginning of the treatment, at D30 and D40.
(§6) All animals received a per os gavage using an inox steel cannula. Vehicle or Donepezil (1 mg/kg) were administered at D8 until D17; or at D20 until D30 or at D20 to D40 once a day. All the treatments were administered under a volume calculated according to the individual body weight of each mouse (5 mL/Kg).
as §5, with “8min” for “8 min”, “occasions.” for “occasions. The number of maximum alternations were therefore the total number of arm entries minus two and the percentage of alternation as calculated as (actual alternations / maximum alternations)×100. Calculated parameters consisted in the percentage of alternation (memory index) and the total number of arm entries (exploration index) (52-56).”

[2] = test system: Aβ25-35-induced step-through passive avoidance deficits in mice; test: Step-through passive avoidance test (STPA) in Aβ25-35 ICV-injected mice; assay type: in vivo, Swiss mice
Procedure: as §1, §2, §3, §4
The guillotine door was initially closed during the training session. Each mouse was placed into the white compartment. After 5 s, the door was raised. […] The retention test was carried out 24 h after training. Each mouse was placed again into the white compartment. After 5 s, the door was raised.
as §6

[3] = test system: Aβ25-35-induced spontaneous alternation deficits in mice; test: Spontaneous alternation performance (Y-maze) in Aβ25-35 ICV-injected mice; assay type: in vivo, Swiss mice; settings: Example C
[4] = test system: patient's cognitive function; settings: cited from earlier work

Row | Structure (SMILES) | Effect on Aβ25-35-induced cognitive impairment, spontaneous alternation (Y-maze), after longer treatment [1] | Effect on Aβ25-35-induced cognitive impairment, spontaneous alternation (Y-maze), after longer treatment ([1]; listed as DNPz) | Effect on Aβ25-35-induced cognitive impairment, spontaneous alternation (Y-maze) [1] | Effect on Aβ25-35-induced cognitive impairment, spontaneous alternation (Y-maze) ([1]; listed as DNPz) | Percentage drug effect in Y-maze at D30 ([1]; Example B, 1 mg/Kg D20 until D40, tested at D30) | Percentage drug effect in Y-maze at D38 ([1]; Example B, 1 mg/Kg D20 until D40, tested at D38, not statistically significant) | Recovery of Aβ25-35-induced cognitive impairment assessed by Y-maze ([1]; Example B, 1 mg/Kg per os once a day started at D08 (to D17), tested D15) | Activity in Y-maze, % of optimal activity ([1]; Example B, 1 mg/kg administered D20 to D30, tested D28) | Effect on long-term memory, passive avoidance (step-through latency and escape latency) ([2]; Example A, treatment alone D20 to D40 or D42, tested D39-40 or D41-42) | Recovery of Aβ25-35-induced cognitive impairment assessed by passive avoidance test ([2]; Example B, 1 mg/Kg started at D08 (to D17), tested D16-17) | Activity in passive avoidance test ([2]; Example B, 1 mg/kg administered D20 to D30, tested D29-30) | Fear conditioning memory assessed by STPA at D99/D100 ([2]; Example C, end of experiment, treatment until D100) | % of alternation in Y-maze at D42 ([3]; 1 mg/Kg from D7, at D42) | Difference of Y-maze effect from Sc.Aβ-vehicle animals ([3]; 1 mg/Kg from D7, between D21 and D28) | Y-maze activity after D48 until D100 ([3]; donepezil 1 mg/Kg only, D7 to D100) | Time after initiation of treatment at which cognitive function reaches its baseline level ([4]; Alzheimer's patients) | Period during which treatment improved the patient's cognitive function ([4]; Alzheimer's patients, from initiation of treatment) | Efficacy over time in Alzheimer's patients ([4]; compared with donepezil studies)
1 | COc1cc2c(cc1OC)C(=O)C(CC1CCN(Cc3ccccc3)CC1)C2 (stereo not drawn) [donepezil] | totally lost | not sustained | partially alleviated | partial activity | 43% | 25% | fully recover | 44% | partially restored long-term memory | fully recover | partially active | altered | 47% | not significantly different | inactivity was sustained | 30 weeks | 12 weeks | –
2 | CCN(C)C(=O)Oc1cccc([C@H](C)N(C)C)c1 [rivastigmine] | – | – | – | – | – | – | – | – | – | – | – | – | – | – | – | – | – | limited efficacy
